Data published in patent US4378344A, “Method and apparatus for performing multiple, simultaneous in vitro diagnostic tests using a solid phase system” (priority 1979, dated 1983).
Where two headings read alike, the source gives them in different places.

How the values were obtained:
anti-T4 [1] = assay: simultaneous assay: 125I-thyroxin bound to anti-T4 coated stick (Example 6); type: binding, rabbit
Method: (§1) Digoxin and thyroxin were utilized as the antigens. 1.1 ml of 0.01 M PBS at pH 7.4 and also containing 5 mg/ml thimersol was added to the appropriate tubes. 50 μl of a digoxin solution and 50 μl of a T4 solution were added to each tube.
(§2) The following series of assays were conducted.
(B) uncoated tube and anti-T4 coated stick
(§3) (D) anti-digoxin coated tube and anti-T4 coated stick.
(§4) The remainder of the values are based on these two values.

anti-T4 [2] = assay: simultaneous assay in clinical serum sample: 125I-thyroxin bound to anti-T4 coated stick (Example 7); type: binding, rabbit
anti-digoxin [3] = assay: simultaneous assay: 125I-digoxin bound to anti-digoxin coated tube (Example 6); type: binding, rabbit
Method: as §1, §2
(A) anti-digoxin coated tube;
(C) anti-digoxin coated tube and uncoated stick; and,
as §3, §4

anti-digoxin [4] = conditions: clinical sample
Method: The same series of assays were conducted as described in Example 6 and expressed in the same manner.

N[C@@H](Cc1cc(I)c(Oc2cc(I)c(O)c(I)c2)c(I)c1)C(=O)O [T4, thyroxin]
T4 binding to the anti-T4 coated stick (anti-T4 [1]; when an anti-digoxin coated tube is also present): no significant difference | T4 binding to the anti-T4 coated stick (anti-T4 [1]; when digoxin, 125I-digoxin or both are present): no significant difference

N[C@@H](Cc1cc(I)c(Oc2cc(I)c(O)c([125I])c2)c(I)c1)C(=O)O [^125 I-T4, ^125 I-Thyroxin]
% ^125 I-Thyroxin Bound (anti-T4 [1]; stick 2 (digoxin 0, T4 0 ng/ml; no 125I-digoxin), series B, uncoated tube, set as 100%): 100% | % ^125 I-Thyroxin Bound (anti-T4 [1]; stick 2 (digoxin 0, T4 0 ng/ml; no 125I-digoxin), series D, anti-digoxin tube): 96% | % ^125 I-Thyroxin Bound (anti-T4 [1]; stick 3 (digoxin 0, T4 0 ng/ml; with 125I-digoxin), series B, uncoated tube): 106% | % ^125 I-Thyroxin Bound (anti-T4 [1]; stick 3 (digoxin 0, T4 0 ng/ml; with 125I-digoxin), series D, anti-digoxin tube): 106% | % ^125 I-Thyroxin Bound (anti-T4 [1]; stick 5 (digoxin 0, T4 30 ng/ml; no 125I-digoxin), series B, uncoated tube): 81% | % ^125 I-Thyroxin Bound (anti-T4 [1]; stick 5 (digoxin 0, T4 30 ng/ml; no 125I-digoxin), series D, anti-digoxin tube): 79% | % ^125 I-Thyroxin Bound (anti-T4 [1]; stick 6 (digoxin 0, T4 30 ng/ml; with 125I-digoxin), series B, uncoated tube): 92% | % ^125 I-Thyroxin Bound (anti-T4 [1]; stick 6 (digoxin 0, T4 30 ng/ml; with 125I-digoxin), series D, anti-digoxin tube): 95% | % ^125 I-Thyroxin Bound (anti-T4 [1]; stick 8 (digoxin 4, T4 0 ng/ml; no 125I-digoxin), series B, uncoated tube): 101% | % ^125 I-Thyroxin Bound (anti-T4 [1]; stick 8 (digoxin 4, T4 0 ng/ml; no 125I-digoxin), series D, anti-digoxin tube): 100% | % ^125 I-Thyroxin Bound (anti-T4 [1]; stick 9 (digoxin 4, T4 0 ng/ml; with 125I-digoxin), series B, uncoated tube): 113% | % ^125 I-Thyroxin Bound (anti-T4 [1]; stick 9 (digoxin 4, T4 0 ng/ml; with 125I-digoxin), series D, anti-digoxin tube): 108% | % ^125 I-Thyroxin Bound (anti-T4 [1]; stick 11 (digoxin 4, T4 30 ng/ml; no 125I-digoxin), series B, uncoated tube): 82% | % ^125 I-Thyroxin Bound (anti-T4 [1]; stick 11 (digoxin 4, T4 30 ng/ml; no 125I-digoxin), series D, anti-digoxin tube): 81% | % ^125 I-Thyroxin Bound (anti-T4 [1]; stick 12 (digoxin 4, T4 30 ng/ml; with 125I-digoxin), series B, uncoated tube): 92% | % ^125 I-Thyroxin Bound (anti-T4 [1]; stick 12 (digoxin 4, T4 30 ng/ml; with 125I-digoxin), series D, anti-digoxin tube): 89% | % ^125 I-Thyroxin Bound (anti-T4 [2]; stick 2 (no 125I-digoxin), series B, uncoated tube, set as 100%): 100% | % ^125 I-Thyroxin Bound (anti-T4 [2]; stick 2 (no 125I-digoxin), series D, anti-digoxin tube): 102% | % ^125 I-Thyroxin Bound (anti-T4 [2]; stick 3 (with 125I-digoxin), series B, uncoated tube): 146% | % ^125 I-Thyroxin Bound (anti-T4 [2]; stick 3 (with 125I-digoxin), series D, anti-digoxin tube): 143%

C[C@H]1O[C@@H](O[C@H]2[C@@H](O)C[C@H](O[C@H]3[C@@H](O)C[C@H](O[C@H]4CC[C@@]5(C)[C@H](CC[C@@H]6[C@@H]5C[C@@H](O)[C@]5(C)[C@@H](C7=CC(=O)OC7)CC[C@]65O)C4)O[C@@H]3C)O[C@@H]2C)C[C@H](O)[C@@H]1O [digoxin]
digoxin binding to the anti-digoxin coated tube (anti-digoxin [3]; when T4, 125I-T4 or both are present): no significant difference | digoxin binding to the anti-digoxin coated tube (anti-digoxin [3]; when an uncoated stick or an anti-T4 coated stick is also present): no significant difference

^125 I-Digoxin
% ^125 I-Digoxin Bound (anti-digoxin [4]; tube 1 (no 125I-T4), series A, no stick, set as 100%): 100% | % ^125 I-Digoxin Bound (anti-digoxin [4]; tube 1 (no 125I-T4), series C, uncoated stick): 95% | % ^125 I-Digoxin Bound (anti-digoxin [4]; tube 1 (no 125I-T4), series D, anti-T4 stick): 114% | % ^125 I-Digoxin Bound (anti-digoxin [4]; tube 3 (with 125I-T4), series A, no stick): 98% | % ^125 I-Digoxin Bound (anti-digoxin [4]; tube 3 (with 125I-T4), series C, uncoated stick): 135% | % ^125 I-Digoxin Bound (anti-digoxin [4]; tube 3 (with 125I-T4), series D, anti-T4 stick): 116% | % ^125 I-Digoxin Bound (anti-digoxin [3]; tube 1 (digoxin 0, T4 0 ng/ml; no 125I-T4), series A, no stick, set as 100%): 100% | % ^125 I-Digoxin Bound (anti-digoxin [3]; tube 1 (digoxin 0, T4 0 ng/ml; no 125I-T4), series C, uncoated stick): 118% | % ^125 I-Digoxin Bound (anti-digoxin [3]; tube 1 (digoxin 0, T4 0 ng/ml; no 125I-T4), series D, anti-T4 stick): 126% | % ^125 I-Digoxin Bound (anti-digoxin [3]; tube 3 (digoxin 0, T4 0 ng/ml; with 125I-T4), series A, no stick): 98% | % ^125 I-Digoxin Bound (anti-digoxin [3]; tube 3 (digoxin 0, T4 0 ng/ml; with 125I-T4), series C, uncoated stick): 109% | % ^125 I-Digoxin Bound (anti-digoxin [3]; tube 3 (digoxin 0, T4 0 ng/ml; with 125I-T4), series D, anti-T4 stick): 121% | % ^125 I-Digoxin Bound (anti-digoxin [3]; tube 4 (digoxin 0, T4 30 ng/ml; no 125I-T4), series A, no stick): 97% | % ^125 I-Digoxin Bound (anti-digoxin [3]; tube 4 (digoxin 0, T4 30 ng/ml; no 125I-T4), series C, uncoated stick): 111% | % ^125 I-Digoxin Bound (anti-digoxin [3]; tube 4 (digoxin 0, T4 30 ng/ml; no 125I-T4), series D, anti-T4 stick): 109% | % ^125 I-Digoxin Bound (anti-digoxin [3]; tube 6 (digoxin 0, T4 30 ng/ml; with 125I-T4), series A, no stick): 100% | % ^125 I-Digoxin Bound (anti-digoxin [3]; tube 6 (digoxin 0, T4 30 ng/ml; with 125I-T4), series C, uncoated stick): 104% | % ^125 I-Digoxin Bound (anti-digoxin [3]; tube 6 (digoxin 0, T4 30 ng/ml; with 125I-T4), series D, anti-T4 stick): 110% | % ^125 I-Digoxin Bound (anti-digoxin [3]; tube 7 (digoxin 4, T4 0 ng/ml; no 125I-T4), series A, no stick): 66% | % ^125 I-Digoxin Bound (anti-digoxin [3]; tube 7 (digoxin 4, T4 0 ng/ml; no 125I-T4), series C, uncoated stick): 76% | % ^125 I-Digoxin Bound (anti-digoxin [3]; tube 7 (digoxin 4, T4 0 ng/ml; no 125I-T4), series D, anti-T4 stick): 68% | % ^125 I-Digoxin Bound (anti-digoxin [3]; tube 9 (digoxin 4, T4 0 ng/ml; with 125I-T4), series A, no stick): 69% | % ^125 I-Digoxin Bound (anti-digoxin [3]; tube 9 (digoxin 4, T4 0 ng/ml; with 125I-T4), series C, uncoated stick): 77% | % ^125 I-Digoxin Bound (anti-digoxin [3]; tube 9 (digoxin 4, T4 0 ng/ml; with 125I-T4), series D, anti-T4 stick): 70% | % ^125 I-Digoxin Bound (anti-digoxin [3]; tube 10 (digoxin 4, T4 30 ng/ml; no 125I-T4), series A, no stick): 62% | % ^125 I-Digoxin Bound (anti-digoxin [3]; tube 10 (digoxin 4, T4 30 ng/ml; no 125I-T4), series C, uncoated stick): 76% | % ^125 I-Digoxin Bound (anti-digoxin [3]; tube 10 (digoxin 4, T4 30 ng/ml; no 125I-T4), series D, anti-T4 stick): 69% | % ^125 I-Digoxin Bound (anti-digoxin [3]; tube 12 (digoxin 4, T4 30 ng/ml; with 125I-T4), series A, no stick): 63% | % ^125 I-Digoxin Bound (anti-digoxin [3]; tube 12 (digoxin 4, T4 30 ng/ml; with 125I-T4), series C, uncoated stick): 73% | % ^125 I-Digoxin Bound (anti-digoxin [3]; tube 12 (digoxin 4, T4 30 ng/ml; with 125I-T4), series D, anti-T4 stick): 68%
